Assay results from ChEMBL document CHEMBL3244201, “Synthesis and specific pressor activity of [1-aspartic acid,5-valine,9-serine]angiotensin I ("fowl angiotensin I")” (1977).

Experiments:
Assay type in all cases: functional
Rattus norvegicus [1] = organism: Rattus norvegicus; assay: Pressor activity in rat assessed as weight basis relative to mammalian [Ile5]angiotensin 2
Rattus norvegicus [2] = organism: Rattus norvegicus; assay: Pressor activity in rat assessed as weight basis relative to mammalian [Val5]angiotensin 2
Rattus norvegicus [3] = organism: Rattus norvegicus; assay: Pressor activity in ganglion-blocked vagotomized rat assessed as weight basis relative to mammalian [Ile5]angiotensin 2
Rattus norvegicus [4] = organism: Rattus norvegicus; assay: Pressor activity in rat assessed as molar basis relative to mammalian [Val5]angiotensin 2
Rattus norvegicus [5] = organism: Rattus norvegicus; assay: Pressor activity in rat assessed as weight basis relative to mammalian [Ile5]angiotensin 1
Rattus norvegicus [6] = organism: Rattus norvegicus; assay: Pressor activity in rat assessed as molar basis relative to mammalian [Val5]angiotensin 1
Rattus norvegicus [7] = organism: Rattus norvegicus; assay: Pressor activity in rat assessed as molar basis relative to mammalian [Ile5]angiotensin 2
Rattus norvegicus [8] = organism: Rattus norvegicus; assay: Pressor activity in rat assessed as weight basis relative to mammalian [Val5]angiotensin 1
Rattus norvegicus [9] = organism: Rattus norvegicus; assay: Pressor activity in rat assessed as molar basis relative to mammalian [Ile5]angiotensin 1

Row | Molecule | Activity (Rattus norvegicus [1]) [%] | Activity (Rattus norvegicus [2]) [%] | Activity (Rattus norvegicus [3]) [%] | Activity (Rattus norvegicus [4]) [%] | Activity (Rattus norvegicus [5]) [%] | Activity (Rattus norvegicus [6]) [%] | Activity (Rattus norvegicus [7]) [%] | Activity (Rattus norvegicus [8]) [%] | Activity (Rattus norvegicus [9]) [%]
1 | H-DRVYVHPFHL-OH | 51.5 | 37.8 |  |  |  |  |  |  | 
2 | CC[C@H](C)[C@H](NC(=O)[C@H](Cc1ccc(O)cc1)NC(=O)[C@@H](NC(=O)[C@H](CCCNC(=N)N)NC(=O)[C@@H](N)CC(=O)O)C(C)C)C(=O)N[C@@H](Cc1cnc[nH]1)C(=O)N1CCC[C@H]1C(=O)N[C@@H](Cc1ccccc1)C(=O)O [ANGIOTENSIN II] | 100 | 73.5 |  |  |  |  |  |  | 
3 | H-DRVYVHPFSL-OH | 94.1 | 69.2 | 91.2 | 85.1 | 160.4 | 180.8 | 114.4 | 182.8 | 157
4 | H-DRVYIHPFHL-OH | 58.6 | 43.1 |  |  |  |  |  |  | 
5 | H-DRVYVHPF-OH [[Val5] - ANGIOTENSIN II] | 136 | 100 |  |  |  |  |  |  | 
